Entries after “also recorded” stand apart in the source; their conditions may differ.
What was measured:
Human nTregs = test: Human nTreg conversion into IL-17A producing cells; assay type: cell-based
Experimental: Several discrepancies have been reported for mechanisms promoting Th17 cell development in mice and human^15. […] In addition, it has been shown that IL-2 inhibits Th17 development^16. In contrast, human Th17 differentiation requires IL-1β and IL-6 and can be inhibited by TFG-β and IL-2^34. […] Therefore, it was tested whether NAD^+ was a universal molecule that was able to enhance nTreg conversion into Th17 cells in human and mice as well. Human nTregs were isolated and cultured in presence of increasing NAD^− concentrations and IL-2. […] Of note, human nTregs conversion into IL-17A^+ producing cells remained CD4^+CD25^+.
For isolation of human Treg cells, peripheral blood mononuclear cells were obtained from young healthy volunteers using density gradient centrifugation with Ficoll-Paque (STEMCELL TECHNOLOGIES, Vancouver, BC, Canada). Non-CD4^+ T cells were then depleted using biotin-conjugated monoclonal anti-human antibodies against CD8, CD14, CD15, CD16, CD19, CD36, CD56, CD123, TCRγ/δ, CD235a (Glycophorin A) and anti-biotin magnetic beads (Miltenyi Biotec). […]
For cultivation of human Treg cells, recombinant human IL-2 (EBIOSCIENCE) and superparamagnetic beads coupled with human α-CD3 and α-CD28 (LIFE TECHNOLOGIES, Carlsbad, Calif.) were used. Cells were cultured during 10 days and analyzed by flow cytometry.

naïve CD4+ T cells [1] = test: Naïve CD4+ T cell differentiation under iTreg polarizing conditions; assay type: cell-based, mouse
From the text: Next, it was investigated whether NAD^+ modulates CD4^+ T differentiation under iTreg polarizing conditions. Isolated naïve CD4^+ T cells were activated with anti-CD3/CD28 antibodies in presence of recombinant TGFβ and IL-2 cytokines and blocking anti-IL-4, anti-IL-12 and anti-IFNγ antibodies.
(§1) Single-cell leukocyte suspensions were obtained from spleens from 8-10 week old DBA mice and CD4^− T cells were isolated by negative selection using a CD4^+ T cell isolation kit (MILTENYI BIOTEC, Bergisch Gladbach, Germany). Cells were further sorted using α-CD4-PE (EBIOSCIENCE, San Diego, Calif.) and purities of CD4^+ T cells after isolation were >98%.
(§2) All recombinant cytokines and antibodies were purchased from EBIOSCIENCE except recombinant TGF-β cytokine (R&D SYSTEMS, Minneapolis, Minn.). After 96 hrs of culture supernatants and cells were collected and analyzed by ELISA and flow cytometry, respectively.
(§3) Fluorescently labeled anti-mouse α-CD4 (GK1.5), α-CD25 (PC61), α-IFN-γ (XMG1.2) and unlabeled α-CD16/CD32 (2.4G2) antibodies were obtained from BD BIOSCIENCES (San Jose, Calif.). Fluorescently labeled anti-mouse α-IL-4 (FJK-16s), α-IL-10 (JES5-16E3), α-IL-17A (eBio17B7), and anti-TGFβ (TW7-16B4) were obtained from eBIOSCIENCE (San Diego, Calif.). Intracellular staining for IL-4, IL-10, IL-17A, IFNγ and TGFβ was performed according to manufacturers' protocols. Splenocytes were re-stimulated in complete media (RPMI media containing 10% FCS, 1% L-Glutamine, 1% Penicillin/Streptomycin; all Bio Whittaker, Walkersville, Md.) for 4 hours at 37° C. with ionomycin, phorbol 12-myristate 13-acetate and Brefelding A (EBIOSCIENCE). Cells were fixed and permeabilized using CYTOFIX/CYTOPERM solution (BD BIOSCIENCES). Flow cytometry measurements of single-cell suspensions were performed on a FACSCalibur using standard procedures and data were analyzed using FLOWJO software (TREE STAR, Ashland, Oreg.).

naïve CD4+ T cells [2] = test: Naïve CD4+ T cell differentiation under Th2 polarizing conditions; assay type: cell-based, mouse
Experimental: Next, the effects of NAD^+ on activated CD4+ T cells were tested in Th2 polarizing conditions. […] In the absence of NAD^−, CD4^+ T cells cultured in Th2 cytokine environment barely produced IL-17A cytokine while in the presence of increasing concentrations of NAD^+, cultured cells produced large amounts (>2000 pg/ml) in a dose dependent manner (FIG. 2A). […] In contrast, production of the pro-inflammatory cytokine TNF-α was inhibited in the presence of NAD^− (FIG. 7D). […] Thus, these findings indicate that NAD^+ drives the switch from classical Th2/IL-10^+ toward Th2/IL-17A^+ producing cells.
as §1, §2, §3

NOD/Schilt mice = test: Type 1 diabetes mouse model; assay type: in vivo
Experimental: NOD/Schilt mice were used to assess the role of NAD+ as a treatment for Type I Diabetes (T1D). By the 20th week, […] started consistently rising above the normal average. By week 25, […] were detected over 600 mg/dL. These levels were consistently high for 1 week before treatment with NAD+ was initiated. Treatment with NAD+ was given daily at 40 mg per mouse.
It is important to note that most T1D studies begin treating diabetic animals when glucose levels reach 250 mg/dl or greater for 2 consecutive days.

C57BL/6 mice = conditions: mouse, in vivo, ip
Experimental: C57BL/6 mice (8-10 weeks old) were daily administered 60 mg of NAD^+ or a placebo solution (PBS) intraperitoneally during 4 days. Blood and spleen were collected after 4 days of treatment. Absolute number of lymphocytes in the blood was determined using a hemocytometer (model 850 FS, Drew Scientific, Miami lakes, Fla.). To determine absolute lymphocyte number in spleens, cells were isolated and counted with a hemocytometer then stained with antibodies anti-CD4^+, CD3^+ or B220^+ and percentage was determined by flow analysis.

CD4+CD25+ nTregs = test: Functional in-vitro Treg cell assay (flow cytometry, ELISA, real-time PCR); assay type: cell-based, mouse
[3] = nTregs with NAD+, 24 hrs of culture
[4] = nTregs with NAD+, after 4 days of culture
[5] = nTregs, increasing NAD+, 96 hrs, real-time PCR and ELISA

Q: With NC(=O)c1ccc[n+]([C@@H]2O[C@H](COP(=O)([O-])OP(=O)(O)OC[C@H]3O[C@@H](n4cnc5c(N)ncnc54)[C@H](O)[C@@H]3O)[C@@H](O)[C@H]2O)c1 [NAD+, nicotinamide adenine dinucleotide] as the compound, how does the IL-17A cytokine production (Human nTregs; increasing NAD+ and IL-2, ELISA) read?
A: enhance

Q: What about the “number of IL-17A+ cells” value (Human nTregs; increasing NAD+ and IL-2, flow cytometry) of the same compound?
A: increased

Q: What about the “amount of TGFβ” value (naïve CD4+ T cells [1]) of the same compound?
A: reduced amount

Q: What about the IL-6 production (naïve CD4+ T cells [1]; ELISA) of the same compound?
A: remained unchanged

Q: What about the IL-10 secretion (naïve CD4+ T cells [1]; ELISA) of the same compound?
A: reduced

Q: What about the IL-17A cytokine production (naïve CD4+ T cells [1]; ELISA) of the same compound?
A: increased

Q: And the TNF-α production (naïve CD4+ T cells [1]; ELISA)?
A: inhibited

Q: What about the “frequency of CD4+IL10+ cells” value (naïve CD4+ T cells [1]; flow cytometry) of the same compound?
A: robust decreased frequency

Q: And the “frequency of CD4+IL17A+ cells” value (naïve CD4+ T cells [1]; flow cytometry)?
A: increased frequency

Q: What about the “number of CD4+TGFβ+IL-10+ cells” value (naïve CD4+ T cells [1]; flow cytometry) of the same compound?
A: decreased number

Q: What about the IL-4 cytokine production (naïve CD4+ T cells [2]; 96 hrs, ELISA) of the same compound?
A: did not affect

Q: What about the IL-10 cytokine production (naïve CD4+ T cells [2]; 96 hrs, ELISA) of the same compound?
A: reduced

Q: And the IL-13 cytokine production (naïve CD4+ T cells [2]; ELISA)?
A: did not affect

Q: What about the TNF-α production (naïve CD4+ T cells [2]; ELISA) of the same compound?
A: inhibited

Q: What about the “CD4+IL10+ cell frequency” value (naïve CD4+ T cells [2]; flow cytometry) of the same compound?
A: decreased number

Q: What about the “CD4+IL17A+ cells” value (naïve CD4+ T cells [2]; flow cytometry) of the same compound?
A: increased number

Q: What about the “CD4+IL-4+ cell frequency” value (naïve CD4+ T cells [2]; flow cytometry) of the same compound?
A: no changes

Q: And the IL-17A secretion (naïve CD4+ T cells [2]; increasing NAD+, dose dependent, ELISA)?
A: > 2000 pg/mL

Q: And the blood glucose levels (NOD/Schilt mice; diabetic mice (higher than 600 mg/dl), NAD+ daily 40 mg per mouse)?
A: much lower levels; also recorded: marked decrease

Q: And the insulin levels (NOD/Schilt mice; diabetic mice (over 600 mg/dL), NAD+ daily 40 mg per mouse, 5 days after treatment)?
A: started to decline at a significant rate

Q: And the “activity of lethargic type 1 diabetic mice” value (NOD/Schilt mice; within 10 days of NAD+ treatment)?
A: became much more active and aggressive

Q: And the “absolute number of circulating lymphocytes in the blood and spleens” value (C57BL/6 mice)?
A: did not affect

Q: And the “cells able to produce IL-17A” value (CD4+CD25+ nTregs; 250 μM NAD+, 96 hrs of culture)?
A: more than 16%

Q: And the nTregs apoptosis (CD4+CD25+ nTregs; Annexin V, increasing NAD+)?
A: induced

Q: What about the “proliferation of CD4+CD25−IL-17A+Foxp3+ cells (CFSE)” value (CD4+CD25+ nTregs; NAD+, dose dependent manner, no exogenous IL-23) of the same compound?
A: able to proliferate

Q: And the “frequencies of CD4+CD25+FoxP3+ cells” value (CD4+CD25+ nTregs; increased NAD+ concentrations, IL-2, no TGFβ/IL-6)?
A: reduced

Q: What about the “apoptosis of CD4+CD25−IL-17A+Foxp3+ cells (annexin V)” value (CD4+CD25+ nTregs; increasing NAD+, 48 and 96 hrs) of the same compound?
A: did not become apoptotic

Q: And the IL-17A cytokine production (CD4+CD25+ nTregs; nTregs from STAT3−/− mice vs wild type, with NAD+, 96 hrs, ELISA)?
A: reduced

Q: And the “frequency of IL-17A+ cells” value (CD4+CD25+ nTregs; nTregs from STAT3−/− mice vs wild type, with NAD+, 96 hrs, flow cytometry)?
A: significant decreased, but not complete

Q: And the “Foxp3 mRNA level” value (CD4+CD25+ nTregs; [3])?
A: significantly increased

Q: And the GATA3 expression level (CD4+CD25+ nTregs; [3])?
A: remained unchanged

Q: And the “RORγt mRNA level” value (CD4+CD25+ nTregs; [3])?
A: > 10 fold

Q: And the “STAT3 mRNA level” value (CD4+CD25+ nTregs; [3])?
A: > 10 fold

Q: And the STAT5 expression level (CD4+CD25+ nTregs; [3])?
A: remained unchanged

Q: What about the Tbx21 expression level (CD4+CD25+ nTregs; [3]) of the same compound?
A: remained unchanged

Q: What about the “Foxp3 mRNA level” value (CD4+CD25+ nTregs; [4]) of the same compound?
A: remained significantly increased

Q: And the “GATA-3 mRNA level” value (CD4+CD25+ nTregs; [4])?
A: decreased significantly

Q: What about the “RORγt mRNA level” value (CD4+CD25+ nTregs; [4]) of the same compound?
A: remained significantly increased

Q: What about the “STAT3 mRNA level” value (CD4+CD25+ nTregs; [4]) of the same compound?
A: remained significantly increased

Q: What about the “STAT5 mRNA level” value (CD4+CD25+ nTregs; [4]) of the same compound?
A: decreased significantly

Q: And the “Tbx21 mRNA level” value (CD4+CD25+ nTregs; [4])?
A: decreased significantly

Q: What about the “IFNγ mRNA and cytokine levels” value (CD4+CD25+ nTregs; [5]) of the same compound?
A: decreased in a dose dependent manner

Q: What about the “IL-4 mRNA and cytokine levels” value (CD4+CD25+ nTregs; [5]) of the same compound?
A: decreased in a dose dependent manner

Q: And the “IL-10 mRNA and cytokine levels” value (CD4+CD25+ nTregs; [5])?
A: decreased dramatically

Q: What about the “IL-17A mRNA and protein levels” value (CD4+CD25+ nTregs; [5]) of the same compound?
A: increased in a dose dependent manner

Q: And the “TGFβ mRNA and cytokine levels” value (CD4+CD25+ nTregs; [5])?
A: decreased dramatically

— patent US20160067272A1, “METHODS FOR TREATING IMMUNE DISEASES” (priority 2013, published 2016)
